Among the data in PMC4640232 (The Journal of Organic Chemistry, 2015) are Kd values, retold here.

The structures appear in SMILES notation.

In this assay the target is concanavalin A (ConA) (Canavalia ensiformis, UniProt P02866). Put plainly: isothermal titration calorimetry. It counts as binding. A general note: In ITC the heat of successive injections is recorded.
Sequence of concanavalin A (ConA) (P02866 164-281 limits assumed): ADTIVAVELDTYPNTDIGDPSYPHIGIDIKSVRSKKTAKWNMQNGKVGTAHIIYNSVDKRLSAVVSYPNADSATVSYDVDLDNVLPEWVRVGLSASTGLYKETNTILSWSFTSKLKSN
Sequence of concanavalin A (ConA) (P02866 30-148 limits assumed): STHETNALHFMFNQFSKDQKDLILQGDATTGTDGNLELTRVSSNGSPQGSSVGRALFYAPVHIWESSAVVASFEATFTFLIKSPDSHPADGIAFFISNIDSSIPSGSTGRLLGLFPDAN

One may read the Kd as the equilibrium constant for the complex coming apart. A higher Kd goes with weaker binding. `CCCO[C@@H]1O[C@H](CO[C@H]2O[C@H](CO)[C@@H](O)[C@H](O)[C@@H]2O)[C@@H](O)[C@H](O[C@H]2O[C@H](CO)[C@@H](O)[C@H](O)[C@@H]2O)[C@@H]1O` [compound 12, n-Propyl 3,6-Di-O-(α-D-mannopyranosyl)-β-D-mannopyranoside] gave a Kd of 3.27 µM.

For the molecule `CO[C@H]1O[C@H](CO)[C@@H](O)[C@H](O)[C@@H]1O` [methyl α-mannoside], binding was put at a Kd of 4.65 µM.
